In patent publication US20110105472A1, “Diaminopyrimidines as crop protection agents” (Bayer CropScience AG, priority 2008, published 2011):

assay: logP by HPLC on reversed-phase columns (C 18), method [a], acidic range pH 2.3; type: physicochemical; conditions: method [a], HPLC on reversed-phase C 18, acidic range pH 2.3

Compound | log p
NS(=O)(=O)c1cccc(Nc2ncc(Cl)c(NC3CCC3)n2)c1 [Compound 23] | 1.52[a]

same assay, conditions: pH 2.3

Compound | chromatographic logP | log p
Clc1ncc(Cl)c(NC2CCC2)n1 [Compound V-1, 2,5-Dichloro-N-cyclobutylpyrimidine-4-amine] | 2.62 | 
CC(C)Oc1ccc(Nc2ncc(Cl)c(NC3CCC3)n2)cc1.Cl [Compound 36, 5-Chloro-N^4-cyclobutyl-N^2-(4-isopropoxyphenyl)pyrimidine-2,4-diamine hydrochloride] | 2.21 | 
NS(=O)(=O)c1cc(Nc2ncc(Cl)c(NC3CCC3)n2)cc(C(F)(F)F)c1 [compound 24] |  | 2.7[a]
Cl.Clc1cccc(Nc2ncc(Cl)c(NC3CCC3)n2)c1 [Compound 2-1] |  | 3.09^[a]
CN(C)S(=O)(=O)c1ccc(Nc2ncc(Cl)c(NC3CCC3)n2)cc1.Cl [Compound 2-7] |  | 2.58^[a]
Clc1ncc(I)c(NC2CCC2)n1 [Compound V-3, 2-Chloro-N-cyclobutyl-5-iodopyrimidine-4-amine] | 3.08 | 
O=C1CCCCCN1c1cccc(Nc2ncc(Cl)c(NC3CCC3)n2)c1 [Compound 216] |  | 1.96[a]
FC(F)(F)c1cnc(Cl)nc1NC1CCC1 [Compound V-4, 2-Chloro-N-cyclobutyl-5-trifluoromethylpyrimidine-4-amine] | 3.2 | 
CNS(=O)(=O)c1ccc(Nc2ncc(Cl)c(NC3CCC3)n2)cc1 [compound 25] |  | 2.01[a]
CC(C)Oc1ccc(Nc2ncc(Cl)c(NC3CCC3)n2)cc1.Cl [Compound 2-6] |  | 2.21^[a]
Cc1ccc(S(=O)(=O)O)cc1.Cc1nc(Nc2ccccc2)nc(NC2CCC2)c1Cl [Compound 2-8] |  | 1.95^[a]
CCCCNS(=O)(=O)c1ccc(Nc2ncc(Cl)c(NC3CCC3)n2)cc1 [compound 26] |  | 2.91[a]
O=C1CCCCCN1c1cccc(Nc2ncc(Br)c(NC3CCC3)n2)c1 [Compound 215] |  | 2.08[a]
Ic1cnc(Nc2ccccc2)nc1NC1CCC1 [Compound 236] |  | 2.19[a]
CN(c1nc(Nc2ccccc2)ncc1Cl)C1CCC1 [compound 245] |  | 3.32[a]
CC(C)c1ccc(Nc2ncc(Cl)c(NC3CCC3)n2)cc1.Cl [Compound 2-5] |  | 2.74^[a]
O=C1CCCN1c1cc(Nc2ncc(Cl)c(NC3CCC3)n2)ccc1F [Compound 212] |  | 1.75[a]
CC(C)(C)OC(=O)N1CCN(c2ccc(Nc3ncc(Cl)c(NC4CCC4)n3)cc2)CC1 [compound 28] |  | 2.73[a]
CCCOc1cccc(Nc2ncc(Br)c(NC3CCC3)n2)c1 [Compound 30, 5-Bromo-N^4-cyclobutyl-N^2-(3-propoxyphenyl)pyrimidine-2,4-diamine] | 3.27 | 
NS(=O)(=O)c1ccc(Nc2ncc(Cl)c(NC3CCC3)n2)cc1 [compound 27] |  | 1.62[a]
O=C1CCCCN1c1cccc(Nc2ncc(Br)c(NC3CCC3)n2)c1 [Compound 217] |  | 1.77[a]
Clc1ncc(Br)c(NC2CCC2)n1 [Compound V-2, 5-Bromo-2-chloro-N-cyclobutylpyrimidine-4-amine] | 2.87 | 
CC(=O)c1cccc(Nc2ncc(Cl)c(NC3CCC3)n2)c1.Cl [Compound 2-4] |  | 2.04^[a]
Cl.Clc1cnc(Nc2ccccc2)nc1NC1CCC1 [Compound 2-2] |  | 1.97^[a]
COc1cc(Nc2ncc(Cl)c(NC3CCC3)n2)cc(OC)c1.Cl [Compound 2-3] |  | 2.23^[a]

same assay, conditions: pH 2.3; values given in the preparation examples

Compound | logP (pH2.3)
NS(=O)(=O)c1cccc(Nc2ncc(Cl)c(NC3CCC3)n2)c1 [Compound 23] | 1.52

assay: logP by LC-MS, method [b], acidic range pH 2.7; type: physicochemical; conditions: pH 2.7

Compound | log p | chromatographic logP
CC(C)Oc1ccc(Nc2ncc(Cl)c(NC3CCC3)n2)cc1.Cl [Compound 36, 5-Chloro-N^4-cyclobutyl-N^2-(4-isopropoxyphenyl)pyrimidine-2,4-diamine hydrochloride] | 2.44[b] | 
CC(C)C(=O)Nc1ccc(Nc2ncc(Br)c(NC3CCC3)n2)cc1 [compound 169] | 1.83[b] | 
FC(F)C(F)(F)Oc1ccc(Nc2ncc(Br)c(NC3CCC3)n2)cc1 [compound 159] | 3.1[b] | 
O=C1CCCCN1c1cccc(Nc2ncc(Cl)c(NC3CCC3)n2)c1 [Compound 204] | 1.66[b] | 
CCCOc1cccc(Nc2ncc(Br)c(NC3CCC3)n2)c1 [Compound 30, 5-Bromo-N^4-cyclobutyl-N^2-(3-propoxyphenyl)pyrimidine-2,4-diamine] |  | 3.27
COCc1cccc(Nc2ncc(Br)c(NC3CCC3)n2)c1 [Compound 39] | 2.2[b] | 
C=C(C)C(=O)Nc1cccc(Nc2ncc(Br)c(NC3CCC3)n2)c1 [Compound 98] | 1.9[b] | 
O=C(Nc1ccc(Nc2ncc(Br)c(NC3CCC3)n2)cc1)OCCCl [compound 43] | 2.06[b] | 
Clc1ccc(Nc2ncc(Br)c(NC3CCC3)n2)cc1 [compound 69] | 2.99[b] | 
O=S(=O)(c1cccc(Nc2ncc(Br)c(NC3CCC3)n2)c1)N1CCOCC1 [Compound 147] | 2.46[b] | 
COc1cccc(Nc2ncc(Cl)c(NC3CCC3)n2)c1 [Compound 109] | 2.06[b] | 
O=C1CCCc2ccc(Nc3ncc(Br)c(NC4CCC4)n3)cc2N1 [Compound 15] | 1.75[b] | 
CNc1ccc(Nc2ncc(Br)c(NC3CCC3)n2)cc1 [compound 213] | 1.18[b] | 
FC(F)(F)Oc1cccc(Nc2ncc(Cl)c(NC3CCC3)n2)c1 [compound 112] | 3.59[b] | 
O=C(Nc1cccc(Nc2ncc(Br)c(NC3CCC3)n2)c1)c1ccccc1 [compound 168] | 2.46[b] | 
O=C1COc2ccc(Nc3ncc(Br)c(NC4CCC4)n3)cc2N1 [Compound 6] | 1.61[b] | 
CC(C)(C)NC(=O)Cc1cccc(Nc2ncc(Br)c(NC3CCC3)n2)c1 [Compound 143] | 2.19[b] | 
CCOC(=O)Nc1ccc(Nc2ncc(Br)c(NC3CCC3)n2)cc1 [Compound 195] | 1.9[b] | 
CN(C)S(=O)(=O)Oc1ccc(Nc2ncc(Br)c(NC3CCC3)n2)cc1 [Compound 160] | 2.46[b] | 
COC(=O)Nc1ccc(Nc2ncc(Br)c(NC3CCC3)n2)cc1 [Compound 46] | 1.62[b] | 

Compound | log p | chromatographic logP
O=C1NC(=O)C(c2ccc(Nc3ncc(Cl)c(NC4CCC4)n3)cc2)N1 (centres unmarked) [compound 134] | 1.33[b] | 
O=C(c1ccc(Nc2ncc(Cl)c(NC3CCC3)n2)cc1)N1CCOCC1 [Compound 249] | 1.24[b] | 
NS(=O)(=O)c1cc(Nc2ncc(Br)c(NC3CCC3)n2)ccc1Cl [Compound 79] | 2.02[b] | 
CC1(C(=O)Nc2ccc(Nc3ncc(Br)c(NC4CCC4)n3)cc2)CC1 [compound 189] | 2[b] | 
CSc1ccc(Nc2ncc(Cl)c(NC3CCC3)n2)cc1Cl [compound 115] | 3.22[b] | 
COc1cc(Nc2ncc(Br)c(NC3CCC3)n2)ccc1NC(C)=O [Compound 90] | 1.59[b] | 
CCCCC(=O)Oc1ccc(Nc2ncc(Br)c(NC3CCC3)n2)cc1 [compound 161] | 4.32[b] | 
CC(=O)N1CCc2ccc(Nc3ncc(Br)c(NC4CCC4)n3)cc21 [Compound 12] | 1.78[b] | 
COC(=O)c1ccc(Nc2ncc(Br)c(NC3CCC3)n2)cc1 [compound 158] | 2.84[b] | 
N#CCc1cccc(Nc2ncc(C(F)(F)F)c(NC3CCC3)n2)c1 [Compound 226] | 3.01[b] | 
Brc1cnc(Nc2ccc3cc[nH]c3c2)nc1NC1CCC1 [Compound 2] | 1.7[b] | 
CC(C)(C)c1cccc(Nc2ncc(Br)c(NC3CCC3)n2)c1 [Compound 254] | 3.67[b] | 
FC(F)(F)Sc1ccc(Nc2ncc(Br)c(NC3CCC3)n2)cc1 [Compound 71] | 4.51[b] | 
O=C(Nc1ccc(Nc2ncc(Cl)c(NC3CCC3)n2)cc1)C(F)(F)F [compound 121] | 2.09[b] | 
COC(=O)Nc1ccc(Nc2ncc(Cl)c(NC3CCC3)n2)cc1 [Compound 135] | 1.61[b] | 
O=C1CCC(=O)N1c1ccc(Nc2ncc(Br)c(NC3CCC3)n2)cc1 [compound 34] | 1.62[b] | 
CNC(=O)c1cccc(Nc2ncc(Cl)c(NC3CCC3)n2)c1 [compound 127] | 1.5[b] | 
COc1ccc(Nc2ncc(Br)c(NC3CCC3)n2)cc1OC [Compound 65] | 1.71[b] | 
Oc1ccc(Nc2ncc(Br)c(NC3CCC3)n2)cc1F [Compound 184] | 1.5[b] | 
CSc1ccc(Nc2ncc(Br)c(NC3CCC3)n2)cc1Cl [Compound 73] | 3.5[b] | 

Compound | log p | chromatographic logP
COc1cccc(Nc2ncc(C(F)(F)F)c(NC3CCC3)n2)c1 [Compound 238] | 3.48[b] | 
O=CNc1cccc(Nc2ncc(Br)c(NC3CCC3)n2)c1 [Compound 154] | 1.58[b] | 
CCN(C(C)=O)c1ccc(Nc2ncc(Br)c(NC3CCC3)n2)cc1 [Compound 93] | 1.92[b] | 
C=CCNC(=O)c1ccc(Nc2ncc(Br)c(NC3CCC3)n2)cc1 [Compound 83] | 1.99[b] | 
CC(=O)Nc1cc(Nc2ncc(Br)c(NC3CCC3)n2)ccc1C [Compound 200] | 1.58[b] | 
Brc1cnc(Nc2cccc(-c3nccs3)c2)nc1NC1CCC1 [Compound 33] | 2.8[b] | 
CC(C)(C)NC(=O)c1ccc(Nc2ncc(Br)c(NC3CCC3)n2)cc1 [Compound 102] | 2.46[b] | 
O=S(=O)(c1cccc(Nc2ncc(Cl)c(NC3CCC3)n2)c1)N1CCCCC1 [compound 130] | 2.3[b] | 
CC(=O)c1cc(Nc2ncc(Br)c(NC3CCC3)n2)ccc1Cl [Compound 150] | 2.95[b] | 
N#Cc1ccc(Nc2ncc(Br)c(NC3CCC3)n2)cc1 [Compound 70] | 2.95[b] | 
CC(C)c1ccc(Nc2ncc(Br)c(NC3CCC3)n2)cc1 [Compound 40] | 3.13[b] | 
CN1CCN(c2cccc(Nc3ncc(Cl)c(NC4CCC4)n3)c2)C1=O [Compound 237] | 1.66[b] | 
Clc1cc(Cl)cc(Nc2ncc(Br)c(NC3CCC3)n2)c1 [Compound 76] | 4.98[b] | 
OC(c1cccc(Nc2ncc(Cl)c(NC3CCC3)n2)c1)C(F)(F)F (centres unmarked) [Compound 218] | 2.04[b] | 
CCOC(=O)c1cccc(Nc2ncc(Br)c(NC3CCC3)n2)c1 [Compound 77] | 2.77[b] | 
Fc1ccc(Nc2ncc(Br)c(NC3CCC3)n2)cc1 [Compound 62] | 2.6[b] | 
CC(=O)N(c1ccc(Nc2ncc(Br)c(NC3CCC3)n2)cc1)C1CC1 [Compound 209] | 1.9[b] | 
Cc1cc(Nc2ncc(Br)c(NC3CCC3)n2)ccc1O [Compound 201] | 1.59[b] | 
CNC(=O)c1ccc(Nc2ncc(Br)c(NC3CCC3)n2)cc1 [Compound 101] | 1.54[b] | 
